Among the data in patent US9815835B2, “Substituted polycyclic carbamolypyridone derivative” (priority 2009, dated 2017) are IC50 and EC50 values, retold here.

The target of assay [1] is cap-dependent endonuclease (RNP fraction containing PB1•PB2•PA complex) (Influenza A virus, UniProt P15659). The experiment in a line: biochemical. Conditions: RNP from A/WSN/33 virus, capped Cy3/BHQ2 30mer RNA substrate, 60 minutes at room temperature; read-out: CEN IC50.
A further assay relates to influenza virus. The experiment in a line: microbe, parasite or virus in culture. It is filed as cell-based, influenza virus (MDBK or MDCK cells). The note with it: unidentified influenza virus, 72 h, read-out: CPE EC50, effective concentration to achieve 50% CPE inhibition, 3 days incubation, WST-8. On the technique in general: Formazan colour is commonly taken as a measure of viable cells.

Broadly, the IC50 is the concentration that gives 50% inhibition. As for `C[C@H](N1CN([C@H]2c3ccc(Cl)cc3CSc3ccccc32)n2ccc(=O)c(O)c2C1=O)C(F)(F)F` [Example 420], the IC50 in assay [1] was 58 nM. Also, the EC50 with influenza virus turned out to be 21 nM.

In the case of `C[C@H](N1CN([C@H]2c3ccccc3CSc3c(Cl)cccc32)n2ccc(=O)c(O)c2C1=O)C(F)(F)F` [Example 423], the half-inhibitory concentration (IC50) in assay [1] came out at 280 nM. The EC50 in the assay with influenza virus amounted to 19 nM.

As to `C[C@@H](N1CN([C@H]2c3ccc(Br)cc3CSc3ccccc32)n2ccc(=O)c(O)c2C1=O)C(F)(F)F` [Example 433], the IC50 in assay [1] was determined as 14 nM. The EC50 in the assay on influenza virus came to 17 nM.

Consider `C[C@@H](N1CN([C@H]2c3ccccc3SCc3c(F)cccc32)n2ccc(=O)c(O)c2C1=O)C(F)(F)F` [Example 445], for which the IC50 in assay [1] was determined as 13 nM. The EC50 with influenza virus was 4 nM.

Consider `C[C@@H](N1CN([C@H]2c3ccc(Cl)cc3CSc3ccccc32)n2ccc(=O)c(O)c2C1=O)C(F)(F)F` [Example 446], for which, in assay [1], the IC50 is 7 nM. Further, the EC50 in the assay with influenza virus worked out at 11 nM.

For `C[C@H](N1CN([C@H]2c3cc(F)ccc3CSc3ccccc32)n2ccc(=O)c(O)c2C1=O)C(F)(F)F` [Example 447], in assay [1], the IC50 turned out to be 96 nM. Also, the EC50 in the assay on influenza virus is 18 nM.

`C[C@@H](N1CN([C@H]2c3ccccc3CSc3cc(Cl)ccc32)n2ccc(=O)c(O)c2C1=O)C(F)(F)F` [Example 449]: in assay [1], the IC50 was 62 nM. Further, the EC50 in the assay with influenza virus was determined as 21 nM.

Turning to `C[C@H](N1CN([C@@H]2c3ccccc3SCc3c(F)cccc32)n2ccc(=O)c(O)c2C1=O)C(F)(F)F` [Example 452], the IC50 in assay [1] came to 177 nM. Moreover, the EC50 in the assay with influenza virus came out at 16 nM.

As to `C[C@H](N1CN([C@@H]2c3ccccc3SCc3cccc(F)c32)n2ccc(=O)c(O)c2C1=O)C(F)(F)F` [Example 457], the IC50 in assay [1] worked out at 242 nM. Also, the EC50 with influenza virus stood at 14 nM.

Turning to `Cc1cccc2c1CSc1ccccc1[C@H]2N1CN([C@H](C)C(F)(F)F)C(=O)c2c(O)c(=O)ccn21` [Example 464], the IC50 in assay [1] was found to be 24 nM. The EC50 in the assay with influenza virus amounted to 14 nM.

Consider `C[C@@H](N1CN([C@@H]2c3ccccc3SCc3c(C#N)cccc32)n2ccc(=O)c(O)c2C1=O)C(F)(F)F` [Example 476], for which the IC50 in assay [1] was determined as 31 nM. The EC50 in the assay on influenza virus is 14 nM.

Consider `CN(C)CCN1CN(C2c3ccccc3CCc3ccccc32)n2ccc(=O)c(O)c2C1=O` [Example 478], for which the IC50 in assay [1] came to 88 nM. In addition, the EC50 in the assay with influenza virus stood at 129 nM.

With `CC(CN1CCOCC1)N1CN(C2c3ccccc3CCc3ccccc32)n2ccc(=O)c(O)c2C1=O` (stereo not shown) [Example 482], the IC50 in assay [1] is 103 nM. For the same compound, in the assay on influenza virus, the EC50 is 31 nM.

Take `CC(CN1CCN(C)CC1)N1CN(C2c3ccccc3CSc3ccccc32)n2ccc(=O)c(O)c2C1=O` (stereo not shown) [Example 485]: in assay [1], the IC50 worked out at 221 nM. Further, the EC50 with influenza virus came to 424 nM.

In the case of `CC(CN1CCCCC1)N1CN(C2c3ccccc3CCc3ccccc32)n2ccc(=O)c(O)c2C1=O` (stereo not shown) [Example 486], the IC50 in assay [1] came to 140 nM. The EC50 in the assay on influenza virus worked out at 72 nM.

Turning to `CC(CN1CCCCC1)N1CN(C2c3ccccc3CSc3ccccc32)n2ccc(=O)c(O)c2C1=O` (stereo not shown) [Example 487], the IC50 in assay [1] was 91 nM. The EC50 in the assay with influenza virus came to 26 nM.

As to `CC(CN1CCSCC1)N1CN(C2c3ccccc3CCc3ccccc32)n2ccc(=O)c(O)c2C1=O` (stereo not shown) [Example 488], the IC50 in assay [1] was 151 nM. In addition, the EC50 in the assay with influenza virus was 27 nM.

As to `CC(CN1CCSCC1)N1CN(C2c3ccccc3CSc3ccccc32)n2ccc(=O)c(O)c2C1=O` (stereo not shown) [Example 489], the IC50 in assay [1] came to 133 nM. Moreover, in the assay on influenza virus, the EC50 came to 14 nM.

`CCN1C(=O)c2c(O)c(=O)ccn2C(C(c2ccccc2)C2CCCCC2)N1CC` (stereo not shown) [Example 493]: the IC50 in assay [1] came out at 112 nM. In the assay with influenza virus, the EC50 was 101 nM.

Regarding `COCCN1C(=O)c2c(O)c(=O)ccn2C(C(c2ccccc2)c2ccccc2)N1C` (stereo not shown) [Example 495], the IC50 in assay [1] is 277 nM. Also, in the assay with influenza virus, the EC50 worked out at 310 nM.

Regarding `CN1C(=O)c2c(O)c(=O)ccn2C(C(c2ccccc2)c2ccccc2)N1C` (stereo not shown) [Example 496], the IC50 in assay [1] was found to be 170 nM. Also, the EC50 in the assay with influenza virus was found to be 177 nM.

With `CN1C(C(c2ccccc2)c2ccccc2)n2ccc(=O)c(O)c2C(=O)N1CCOc1ccc(F)cc1` (stereo not shown) [Example 497], the IC50 in assay [1] came to 215 nM. In the assay with influenza virus, the EC50 was determined as 511 nM.

As for `CCN1C(=O)c2c(O)c(=O)ccn2C(C(c2ccccc2)c2ccccc2)N1CC` (stereo not shown) [Example 498], the IC50 in assay [1] is 161 nM. In addition, the EC50 in the assay with influenza virus is 351 nM.

In the case of `CC(C)N1CN(C2c3ccccc3CCc3ccccc32)n2cc(CF)c(=O)c(O)c2C1=O` [Example 508], the IC50 in assay [1] came to 36 nM. In the assay on influenza virus, the EC50 came to 56 nM.

On to `CC(C)N1CN(C2c3ccccc3CSc3ccccc32)n2cc(CF)c(=O)c(O)c2C1=O` (stereo not shown) [Example 509], for which the IC50 in assay [1] worked out at 15 nM. Also, in the assay on influenza virus, the EC50 turned out to be 14 nM.

For `COCCC1N(C(C)C)C(=O)c2c(O)c(=O)ccn2N1C1c2ccccc2CCc2ccccc21` (stereo not shown) [Example 511], in assay [1], the IC50 is 175 nM. Besides, the EC50 in the assay on influenza virus is 15 nM.

Consider `COCC1N(C(C)C)C(=O)c2c(O)c(=O)ccn2N1C1c2ccccc2CCc2ccccc21` (stereo not shown) [Example 515], for which the IC50 in assay [1] stood at 197 nM. In the assay on influenza virus, the EC50 turned out to be 19 nM.

With `CSCCC1N(C(C)C)C(=O)c2c(O)c(=O)ccn2N1C1c2ccccc2CCc2ccccc21` (stereo not shown) [Example 516], the IC50 in assay [1] was 39 nM. In addition, the EC50 with influenza virus turned out to be 17 nM.

Regarding `COC(OC)C1N(C(C)C)C(=O)c2c(O)c(=O)ccn2N1C1c2ccccc2CCc2ccccc21` (stereo not shown) [Example 520], the IC50 in assay [1] is 212 nM. Moreover, the EC50 with influenza virus stood at 17 nM.

For `CC(C)N1C(=O)c2c(O)c(=O)ccn2N(C2c3ccccc3CCc3ccccc32)C1CCC(F)(F)F` (stereo not shown) [Example 521], the IC50 in assay [1] was 191 nM. In addition, the EC50 in the assay on influenza virus worked out at 15 nM.

On to `COCCCC1N(C(C)C)C(=O)c2c(O)c(=O)ccn2N1C1c2ccc(Cl)cc2CCc2cc(Cl)ccc21` (stereo not shown) [Example 524], for which, in assay [1], the IC50 is 57 nM. Besides, in the assay on influenza virus, the EC50 is 26 nM.

As for `CC(C)N1C(=O)c2c(O)c(=O)ccn2N(C2c3ccccc3CCc3ccccc32)C1c1ccc(Cl)cc1` (stereo not shown) [Example 527], the IC50 in assay [1] was 127 nM. Besides, the EC50 in the assay with influenza virus was found to be 88 nM.

Turning to `CC(C)N1C(=O)c2c(O)c(=O)ccn2N(C2c3ccccc3CCc3ccccc32)C1CN` (stereo not shown) [Example 532], in assay [1], the IC50 stood at 98 nM. Also, the EC50 with influenza virus worked out at 75 nM.

For the compound `CC(C)N1C(=O)c2c(O)c(=O)ccn2N(C2c3ccccc3CCc3ccccc32)C1CN(C)C` (stereo not shown) [Example 536], in assay [1], the IC50 came to 71 nM. Further, in the assay with influenza virus, the EC50 amounted to 27 nM.

Take `COC(=O)NCC1N(C(C)C)C(=O)c2c(O)c(=O)ccn2N1C1c2ccccc2CCc2ccccc21` (stereo not shown) [Example 544]: the IC50 in assay [1] came to 168 nM. Moreover, the EC50 in the assay on influenza virus came out at 51 nM.

`CSCC(=O)NCC1N(C(C)C)C(=O)c2c(O)c(=O)ccn2N1C1c2ccccc2CCc2ccccc21` (stereo not shown) [Example 546]: the IC50 in assay [1] worked out at 202 nM. Also, in the assay with influenza virus, the EC50 turned out to be 124 nM.

`CC(C)N1C(=O)c2c(O)c(=O)ccn2N(C2c3ccccc3CCc3ccccc32)C1CO` (stereo not shown) [Example 547]: the IC50 in assay [1] came to 32 nM. The EC50 with influenza virus was 27 nM.

Regarding `CC(C)N1C(=O)c2c(O)c(=O)ccn2N(C2c3ccccc3CCc3ccccc32)C1CCO` (stereo not shown) [Example 548], the IC50 in assay [1] is 86 nM. Moreover, the EC50 with influenza virus came to 38 nM.

As to `NCC1N(CCO)C(=O)c2c(O)c(=O)ccn2N1C1c2ccccc2CCc2ccccc21` (stereo not shown) [Example 549], the IC50 in assay [1] was found to be 76 nM. In addition, in the assay on influenza virus, the EC50 was 2100 nM.

Turning to `COCCC1N(CCO)C(=O)c2c(O)c(=O)ccn2N1C1c2ccccc2CCc2ccccc21` (stereo not shown) [Example 552], in assay [1], the IC50 was 230 nM. Besides, the EC50 with influenza virus is 85 nM.

Take `O=C1c2c(O)c(=O)ccn2N(C2c3ccccc3CCc3ccccc32)C(CO)N1CCO` (stereo not shown) [Example 554]: the IC50 in assay [1] turned out to be 65 nM. For the same compound, the EC50 with influenza virus is 465 nM.

With `COC[C@H](C)N1C(=O)c2c(O)c(=O)ccn2N(C2c3ccccc3CCc3ccccc32)[C@@H]1CO` [Example 555], in assay [1], the IC50 came to 23 nM. The EC50 in the assay with influenza virus came to 12 nM.

Turning to `COCCN1C[C@H](C(c2ccccc2)c2ccccc2)n2cc(C)c(=O)c(O)c2C1=O` [Example 557], the IC50 in assay [1] came out at 281 nM. Moreover, the EC50 in the assay with influenza virus was found to be 2470 nM.

Take `CN1C[C@H](C2c3ccccc3CSc3ccccc32)n2cc(C(=O)O)c(=O)c(O)c2C1=O` (stereo partly shown) [Example 560]: the IC50 in assay [1] was found to be 27 nM. Moreover, in the assay with influenza virus, the EC50 worked out at 173 nM.

Regarding `CC(C)N1C[C@H](C2c3ccccc3CSc3ccccc32)n2ccc(=O)c(O)c2C1=O` (stereo partly shown) [Example 561], the IC50 in assay [1] stood at 73 nM. Besides, in the assay with influenza virus, the EC50 worked out at 8 nM.

In the case of `CN1C[C@H](C2c3ccccc3CSc3ccccc32)n2ccc(=O)c(O)c2C1=O` (stereo partly shown) [Example 562], the IC50 in assay [1] amounted to 22 nM. Also, the EC50 in the assay with influenza virus stood at 62 nM.

In the case of `O=C1NCC(C2c3ccccc3CCc3ccccc32)n2ccc(=O)c(O)c21` (stereo not shown) [Example 563], in assay [1], the IC50 stood at 49 nM. Also, the EC50 in the assay with influenza virus was found to be 464 nM.

As for `CN1CC(C2c3ccccc3CCc3ccccc32)n2ccc(=O)c(O)c2C1=O` (stereo not shown) [Example 564], the IC50 in assay [1] was 88 nM. Moreover, in the assay on influenza virus, the EC50 came out at 136 nM.

Consider `CN(C)CCN1CC(C2c3ccccc3CCc3ccccc32)n2ccc(=O)c(O)c2C1=O` (stereo not shown) [Example 565], for which the concentration for half-maximal inhibition (IC50) in assay [1] was found to be 154 nM. Further, the EC50 with influenza virus is 726 nM.

Consider `O=C1c2c(O)c(=O)ccn2C(C2c3ccccc3CCc3ccccc32)CN1c1ccccn1` (stereo not shown) [Example 569], for which, in assay [1], the IC50 was found to be 138 nM. Further, in the assay with influenza virus, the EC50 was 1010 nM.

Take `O=C1c2c(O)c(=O)ccn2C(C2c3ccccc3CCc3ccccc32)CN1c1cccnc1` (stereo not shown) [Example 570]: the IC50 in assay [1] was found to be 81 nM. Further, the EC50 in the assay with influenza virus turned out to be 2050 nM.

Take `NN1CC(C2c3ccccc3CCc3ccccc32)n2ccc(=O)c(O)c2C1=O` (stereo not shown) [Example 571]: the IC50 in assay [1] worked out at 65 nM. The EC50 in the assay on influenza virus is 320 nM.

Take `N#CCN1CC(C2c3ccccc3CCc3ccccc32)n2ccc(=O)c(O)c2C1=O` (stereo not shown) [Example 573]: in assay [1], the IC50 turned out to be 55 nM. In addition, the EC50 with influenza virus was determined as 158 nM.
